pIC50: −log10 of the molar value. Where “and” joins values, the source holds several entries; their conditions need not be identical. Identical values can stand only once. Like-named read-outs stand apart in the source and are kept apart here.
How the values were obtained:
[1] = test system: Salmonella Typhimurium ATCC 14028; assay: Antibacterial activity: growth inhibition, OD600 after 24 h (GIC50); type: cell-based; settings: 25° C.
Method: Evaluation of antibacterial-inhibitory activity of some substituted 2-amino-1H-imidazoles of the invention was carried out by diluting an overnight culture of Salmonella Typhimurium ATCC 14028 into a liquid medium. 200 μl of the diluted overnight culture was added to each well of a microtiter plate together with different concentrations of the test compound (1/2 dilution series of the compound). After an incubation of 24 hours the optical density at 600 nm of each well was determined with a microtiter plate reader.
Starting from a 40 mM stock solution of each compound in DMSO, two-fold serial dilutions in 100 μl liquid broth per well were prepared in dublicate in sterile transparant microtiter plates. The broth used was TSB 1/20 for measurements at 25° C. and CFA (in case of Salmonella Typhimurium) and LBNS (in case of Pseudomonas aeruginosa) for measurements at 37° C. Subsequently an overnight culture of the bacteria (S. Typhimurium ATCC14028 or P. aeruginosa PA14) was diluted 1/200 into the corresponding liquid broth and 100 μl was added to each well of the microtiterplate resulting in a total amout of 200 μl medium per well. After an incubation of 24 hours the optical density at 600 nm of each well was determined with a microtiter plate reader (VERSAmax, Molecular Devices).
Evaluation of antibacterial-inhibitory activity of some substituted imidazo[1,2-a]pyrimidinium bromide salts of the invention was carried out by diluting an overnight culture of Salmonella Typhimurium ATCC14028 or Pseudomonas aeruginosa PA141/200 into liquid medium. 200 μl of the diluted overnight culture was added to each well of a microtiterplate together with different concentrations of the test compound (1/2 dilution series of the compound). After an incubation of 24 hours the optical density at 600 nm of each well was determined with a microtiter plate reader.

S. Typhimurium ATCC14028 = assay: Static peg assay for prevention of biofilm formation (Calgary device, crystal violet); type: cell-based, Salmonella Typhimurium; settings: 25° C.
In short: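 Calgary 96-peg device, ca. 10^6 cells of ATCC14028 per well in TSB 1/20 for 24 h at 25° C (or 48 h at 16° C, medium and compound renewed at 24 h), or in CFA broth for 24 h at 37° C, static, with two-fold compound dilutions. Crystal violet stain, acetic acid extraction, OD570. IC50 from 2–3 independent experiments.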

[2] = Table 18, read-out: S. Typhimurium IC50 (biofilm formation)
[3] = Table 11, read-out: IC50 (biofilm formation)
[4] = Table 14, read-out: IC50 biofilm inhibition

OC1(c2ccc(I)cc2)C[n+]2cccnc2N1Cc1ccccc1.[Br-] (stereo not shown) [Compound 73]
pIC50 ([1]; listed as R1=Benzyl, R3=4-I—Ph, R4=H): 4.30 | pIC50 ([1]; listed as R1=benzyl, R3=4-I—ph, R4=H): 4.00 to 4.30 | pIC50 (S. Typhimurium ATCC14028; Table 11, listed as R1=Bn, R3=4-I—Ph, R4=H, read-out: IC50 (biofilm formation)): 4.51 and 4.57 | pIC50 (S. Typhimurium ATCC14028; Table 14, listed as R1=Bn, R3=4-IPh, R4=H, read-out: IC50 biofilm inhibition): 4.57 | pIC50 (S. Typhimurium ATCC14028; Table 14, listed as R1=Bn, R3=4-Iph, R4=H, read-out: IC50 biofilm inhibition): 4.51 | pIC50 (S. Typhimurium ATCC14028; Table 19, read-out: IC50 (biofilm formation)): 4.44

OC1(c2ccc(Cl)cc2)C[n+]2cccnc2N1C1CCCCC1.[Br-] (stereo not shown) [Compound 64]
pIC50 [1]: 4.00 to 4.30 | pIC50 (S. Typhimurium ATCC14028; Table 11, listed as R1=cyclohexyl, R3=4-Cl—Ph, R4=H, read-out: IC50 (biofilm formation)): 4.36 and 4.45 | pIC50 (S. Typhimurium ATCC14028; Table 14, listed as R1=Cyclohexyl, R3=4-ClPh, R4=H, read-out: IC50 biofilm inhibition): 4.36 and 4.45 | pIC50 (S. Typhimurium ATCC14028; [2]): 4.48

CCCCCCN1c2nccc[n+]2CC1(O)c1ccc([N+](=O)[O-])cc1.[Br-] (stereo not shown) [Compound 34]
pIC50 [1]: 3.70 to 4.00 | pIC50 (S. Typhimurium ATCC14028; 24 hours, Table 15, read-out: (1) IC50 (biofilm inhibition)): 4.26 | pIC50 (S. Typhimurium ATCC14028; [3]): 4.33 | pIC50 (S. Typhimurium ATCC14028; [4]): 4.33 | pIC50 (S. Typhimurium ATCC14028; Table 16, read-out: S. Typhimurium IC50 (biofilm formation)): 4.26

O=[N+]([O-])c1ccc(C2(O)C[n+]3cccnc3N2C2CCCCCCCCCCC2)cc1.[Br-] (stereo not shown) [Compound 69]
pIC50 [1]: > 5.22 | pIC50 (S. Typhimurium ATCC14028; [3]): > 5.20 | pIC50 (S. Typhimurium ATCC14028; [4]): > 5.20 | pIC50 (S. Typhimurium ATCC14028; [2]): > 5.20

OC1(c2ccc(-c3ccccc3)cc2)C[n+]2cccnc2N1C1CCCC1.[Br-] (stereo not shown) [R1=Cyclopentyl, R3=4-biphenylyl, R4=H, 1-cyclopentyl-2-hydroxy-2-(4-biphenylyl)-2,3-dihydro-1H-imidazo[1,2-a]pyrimidin-4-ium bromide]
pIC50 ([1]; Salmonella enterica): 4.30 to 4.60 | pIC50 (S. Typhimurium ATCC14028; Salmonella enterica, Table 11, read-out: IC50 (biofilm formation)): 4.83 | pIC50 (S. Typhimurium ATCC14028; Salmonella enterica, Table 14, read-out: IC50 biofilm inhibition): 4.83

Reference: patent US20130029981A1, “COMPOUNDS, COMPOSITIONS, AND METHODS FOR CONTROLLING BIOFILMS” (Katholieke Universiteit Leuven, priority 2009, published 2013)
